From paper PMC3689833, “Neurochemical Changes in the Mouse Hippocampus Underlying the Antidepressant Effect of Genetic Deletion of P2X7 Receptors” (PLoS ONE, 2013)

Experiments:
[1] = molecular target: T1, NA transporter (Mus musculus, UniProt O55192); assay: 3H-Nisoxetine binding in hippocampal membranes
T1 construct: the tissue from four animals was pooled, homogenized in incubation buffer; from tissue; host or cells: mouse hippocampus membranes (P2rx7+/+ and P2rx7-/- littermates, C57BL/6 background)
Protocol: Male mice (80–85 days old) were decapitated, and the hippocampus was dissected, weighted, and frozen overnight at −70°C. The next day, the tissue from four animals was pooled, homogenized in incubation buffer using an Ultra-Turrax and centrifuged at 40 000×g for 15 minutes. The pellet was washed by repeated resuspension in buffer, followed by centrifugation. […] Eight ligand concentrations (0.1–4 nM) were used in three parallels. The incubation time was 1 hour at 25°C for citalopram, 2.5 hrs at 4°C for nisoxetine and 30 minutes at 25°C for dihydroalprenolol. The non-specific binding was determined in the presence of 1 µM paroxetine (citalopram), 10 µM desmethylimipramine (nisoxetine) and 1 µM (-) alprenolol (DHA). The membranes of P2rx7+/+ and P2rx7−/− mice were assayed in parallel. The binding was terminated using vacuum filtration on GF/B filters soaked in 0.05% polyethylenimine. The Kd and the number of binding sites (Bmax) were calculated using Prism3 software. The protein concentration (approx. 0.5 mg/ml) was measured according to Lowry method using CuEDTA.

[2] = molecular target: β-adrenergic receptors; assay: 3H-Dihydroalprenolol binding in hippocampal membranes; parameters: species or system mouse
Protocol: Male mice (80–85 days old) were decapitated, and the hippocampus was dissected, weighted, and frozen overnight at −70°C. The next day, the tissue from four animals was pooled, homogenized in incubation buffer using an Ultra-Turrax and centrifuged at 40 000×g for 15 minutes. The pellet was washed by repeated resuspension in buffer, followed by centrifugation. […] Eight ligand concentrations (0.1–4 nM) were used in three parallels. […] The membranes of P2rx7+/+ and P2rx7−/− mice were assayed in parallel. The binding was terminated using vacuum filtration on GF/B filters soaked in 0.05% polyethylenimine. The Kd and the number of binding sites (Bmax) were calculated using Prism3 software. The protein concentration (approx. 0.5 mg/ml) was measured according to Lowry method [50] using CuEDTA.

[3] = hippocampal membranes of P2rx7+/+ mice
[4] = hippocampal membranes of P2rx7−/− mice

T1 sequence (O55192 whole entry): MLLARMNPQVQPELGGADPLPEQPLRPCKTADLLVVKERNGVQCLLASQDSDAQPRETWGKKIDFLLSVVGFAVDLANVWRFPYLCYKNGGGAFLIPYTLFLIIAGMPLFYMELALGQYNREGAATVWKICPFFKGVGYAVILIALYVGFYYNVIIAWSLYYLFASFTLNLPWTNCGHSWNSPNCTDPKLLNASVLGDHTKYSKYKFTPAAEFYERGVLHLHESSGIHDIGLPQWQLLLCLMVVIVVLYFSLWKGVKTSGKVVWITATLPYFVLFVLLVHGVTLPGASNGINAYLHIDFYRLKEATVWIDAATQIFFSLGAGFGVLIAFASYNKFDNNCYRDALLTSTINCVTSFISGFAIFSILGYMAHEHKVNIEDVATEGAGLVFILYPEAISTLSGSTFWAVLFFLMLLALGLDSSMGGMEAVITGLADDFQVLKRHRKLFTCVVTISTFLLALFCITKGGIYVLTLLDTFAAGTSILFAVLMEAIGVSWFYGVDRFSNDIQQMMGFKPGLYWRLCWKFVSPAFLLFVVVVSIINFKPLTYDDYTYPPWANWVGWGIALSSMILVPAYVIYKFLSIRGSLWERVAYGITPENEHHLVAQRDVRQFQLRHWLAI

Row | Structure (SMILES) | Kd [1] | Bmax [1, 3] | Bmax [1, 4] | Kd [2, 3] | Kd [2, 4]
1 | CNCCC(Oc1ccccc1OC)c1ccccc1 (centres unmarked) [^3H-nisoxetine] | 0.7 ± 0.05 nM | 126.8±4.9 fmol/mg protein | 131.4±7.5 fmol/mg protein | – | –
2 | CCCc1ccccc1OCC(O)CNC(C)C (centres unmarked) [^3H-dihydroalprenolol] | – | – | – | 0.5 ± 0.02 nM | 0.4 ± 0.02 nM
